The results in this text go back to US10342804B2, “Steroid compound for use in the treatment of hepatic encephalopathy” (Umecrine Cognition AB, priority 2014, dated 2019).

Assay [1] has as its target T1, human α1β2γ2L GABAA receptors (Homo sapiens, UniProt P14867+P47870).
T1 construct: expressed in transfected cells; host or cells: HEK-293, permanently transfected
Briefly: Whole-cell voltage-clamp electrophysiology, HEK-293 cells expressing α1β2γ2L GABAA receptors. Type of assay: cell-based. As to conditions: for GAMSA effect: α1β2γ2L, 1 μM GAMSA, 30 μM GABA, AUC. How it is done: For electrophysiology measurements the Dynaflow® system with the Resolve chip was used (Cellectricon, Göteborg, Sweden). HEK-293 cells were permanently transfected with vectors including the human CMV promoter for constitutive expression of the human α5, β3, and γ2L GABAA receptor subunits (α5β3γ2L) or the human α1, β2, and γ2L GABAA receptor subunits (α1β2γ2L). The cell lines used were selected for good reactivity to GABA and to THDOC. Before measurements cells were incubated for 15 min at 37° C. in 95% air+5% CO2 in extracellular solution (EC) containing the following: 137 mM NaCl, 5.0 mM KCl, 1.0 mM CaCl2, 1.2 mM MgCl2, 10 mM HEPES, and 10 mM glucose, 0.1% DMSO pH 7.4. Thereafter, detached cells were added to the EC solution in the Dynaflow chip bath.
Whole-cell voltage-clamp recordings were made at room temperature (21-23° C., −17 mV with compensation for liquid junction potential as in Haage et al., 2002; Neher, 1992). Command pulses were generate and data collected by PClamp 9.0 software, DigiData 1322A converter, and AxonPatch 200B (Axon Instruments, Foster City, Calif.). Patch electrodes (2-6 MΩ) were filled with intracellular solution (IC) including: 140 mM Cs-gluconate, 3.0 mM NaCl, 1.2 mM MgCl2, 10 mM HEPES, 1.0 mM EGTA, 2 mM Mg-ATP, 0.1% DMSO, pH 7.2.
THDOC and 3α-ethynyl-3β-hydroxyandrostan-17-one oxime were dissolved in dimethyl sulfoxide (DMSO) and thereafter diluted with EC solution to include 0.1% DMSO.
Different protocols were used for different electrophysiology measurements. As α1β2γ2L-GABAA receptors in vivo are present within the synapse a condition resembling that situation, a short application (40 ms) of a high GABA concentration (30 μM), was used. Contrary, α5β3γ2L-GABAA receptors are present extrasynaptically, thus the conditions used were long exposures (6 s) to a low GABA concentration (0.3 μM). The EC75 concentration of THDOC was used, i.e. 100 nM with studies of α1β2γ2L and 200 nM when α5β3γ2L expressing cells were evaluated. With both cell types a pre-exposure with THDOC or THDOC plus 3α-ethynyl-3β-hydroxyandrostan-17-one oxime was used before application of GABA.
Steroid effects in presence of GABA were normalized to controls in order to avoid the effects of inter- and intracellular variation in the measured parameters, each cell was used as its own control and the area under the curve (AUC) was analyzed.

In another assay the test system is blood ammonia. The assay is described as follows: Blood ammonia, PCS rats (Example 12). In kind it is in vivo, rat. How it is done: Male Wistar rats (220-240 g) were anesthetized with isoflurane, and an end-to side porta-caval anastomosis was performed as described by Lee and Fisher (Surgery, 1961, 50, 668-672).
Rats that were subjected to the porta-caval anastomosis procedure are herein referred to as “PCS rats”.
3α-ethynyl-3β-hydroxyandrostan-17-one oxime in sesame oil was administered by subcutaneous injections in the back of the rats, once daily. Two different sets of experiments were performed in hyperammonemic rats. In the first set four groups of rats were used: 1) control rats injected with vehicle; 2) hyperammonemic rats injected with vehicle; 3) control rats injected with 20 mg/Kg of 3α-ethynyl-3β-hydroxyandrostan-17-one oxime and 4) hyperammonemic rats injected with 20 mg/Kg of 3α-ethynyl-3β-hydroxyandrostan-17-one oxime.
For the experiments using PCS rats, the following groups of rats were used: 1) Sham rats injected with vehicle; 2) PCS rats injected with vehicle; 3-4) PCS rats injected with 0.7 or 2.5 mg/Kg of 3α-ethynyl-3β-hydroxyandrostan-17-one oxime. The number of rats used in each experiment is either shown in the corresponding Figure or given in the description of the corresponding Figure.
Blood ammonia was measured using the kit II Ammonia Arkray test (PocketChem BA, Arkray) using 20 μL of fresh blood following manufacturer's specifications.

By inhibition is commonly meant the change of the read-out against control, counted positive when it falls.

T1 sequence (P14867 28-456): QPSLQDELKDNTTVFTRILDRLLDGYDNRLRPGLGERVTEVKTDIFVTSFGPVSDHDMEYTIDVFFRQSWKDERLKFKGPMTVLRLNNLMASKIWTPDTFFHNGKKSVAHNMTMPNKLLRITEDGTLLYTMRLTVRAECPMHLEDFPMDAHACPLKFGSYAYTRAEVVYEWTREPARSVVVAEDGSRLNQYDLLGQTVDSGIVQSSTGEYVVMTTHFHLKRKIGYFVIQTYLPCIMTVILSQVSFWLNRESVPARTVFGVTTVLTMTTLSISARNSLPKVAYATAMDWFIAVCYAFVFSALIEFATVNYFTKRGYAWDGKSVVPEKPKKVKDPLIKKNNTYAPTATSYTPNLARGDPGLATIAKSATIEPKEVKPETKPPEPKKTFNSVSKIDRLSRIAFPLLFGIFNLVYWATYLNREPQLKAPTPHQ
T1 sequence (P47870 25-512 limits assumed): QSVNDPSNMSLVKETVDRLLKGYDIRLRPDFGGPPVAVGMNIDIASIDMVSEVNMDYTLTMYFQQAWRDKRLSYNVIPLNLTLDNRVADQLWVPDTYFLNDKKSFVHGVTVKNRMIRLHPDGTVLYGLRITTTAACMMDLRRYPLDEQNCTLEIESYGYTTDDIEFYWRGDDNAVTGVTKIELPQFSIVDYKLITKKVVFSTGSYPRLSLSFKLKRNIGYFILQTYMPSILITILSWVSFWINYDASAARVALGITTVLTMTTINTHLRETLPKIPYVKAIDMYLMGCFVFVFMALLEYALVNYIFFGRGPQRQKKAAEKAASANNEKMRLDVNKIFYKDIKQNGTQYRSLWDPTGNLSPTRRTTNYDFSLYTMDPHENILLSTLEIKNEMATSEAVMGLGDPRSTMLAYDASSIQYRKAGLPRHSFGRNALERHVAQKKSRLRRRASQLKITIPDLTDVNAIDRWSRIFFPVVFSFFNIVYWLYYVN
T1 sequence (P18507 40-475 partner): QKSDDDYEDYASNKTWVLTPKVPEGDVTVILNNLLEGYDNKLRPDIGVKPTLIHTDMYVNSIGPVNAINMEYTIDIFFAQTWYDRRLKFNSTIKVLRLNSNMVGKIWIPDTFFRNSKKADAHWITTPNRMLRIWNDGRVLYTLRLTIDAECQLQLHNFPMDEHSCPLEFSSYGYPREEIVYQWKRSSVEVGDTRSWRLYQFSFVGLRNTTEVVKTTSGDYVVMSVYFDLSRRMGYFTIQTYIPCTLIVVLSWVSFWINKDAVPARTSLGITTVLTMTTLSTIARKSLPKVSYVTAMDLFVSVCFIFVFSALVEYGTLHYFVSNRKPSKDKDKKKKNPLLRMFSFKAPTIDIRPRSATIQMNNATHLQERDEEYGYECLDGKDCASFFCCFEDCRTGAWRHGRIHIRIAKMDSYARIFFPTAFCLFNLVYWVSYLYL

On to `C#C[C@]1(O)CC[C@@]2(C)C(CC[C@@H]3[C@@H]2CC[C@]2(C)/C(=N\O)CC[C@@H]32)C1` (stereo partly drawn) [3α-ethynyl-3β-hydroxyandrostan-17-one oxime], for which the inhibition at 1 µM in assay [1] (HEK293, read-out: Inhibition of the THDOC enhancement of GABA) was 29 ± 4.7%. Also, the GAMSA effect in assay [1] (100 nM THDOC) is listed as −29 ± 4.7%; in assay [1] (no THDOC (GABA sole activator)), −3.1±1.7%; in assay [1] (no THDOC (GABA sole activator), listed as GAMSA) it was −3.1 ± 1.7%. For the same molecule, the Blood ammonia in the assay on blood ammonia (0.7 mg/Kg) was 302 ± 30 µM; in the assay with blood ammonia (2.5 mg/Kg) it was 294 ± 37 µM.
